Laboratory results from PubChem BioAssay (NCI).
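GI50 marks 50% less growth. Definition used: TGI = concentration required for complete inhibition of growth.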

Key:
Experiment in all cases: NCI tumour cell line growth inhibition, 384-well format
U251 glioblastoma = test system: U251 glioblastoma
UACC-62 melanoma = test system: UACC-62 melanoma
PC-3 prostate = test system: PC-3 prostate
HOP-92 NSCLC = test system: HOP-92 NSCLC
SN12C renal = test system: SN12C renal
786-0 renal = test system: 786-0 renal
K-562 leukemia = test system: K-562 leukemia
SR leukemia = test system: SR leukemia
COLO 205 colon = test system: COLO 205 colon
EKVX NSCLC = test system: EKVX NSCLC
NCI-H522 lung = test system: NCI-H522 lung
MOLT-4 leukemia = test system: MOLT-4 leukemia
HL-60(TB) leukemia = test system: HL-60(TB) leukemia
HCC-2998 colon = test system: HCC-2998 colon
HCT-15 colon = test system: HCT-15 colon
MCF7 breast = test system: MCF7 breast
A549 NSCLC = test system: A549 NSCLC
MALME-3M melanoma = test system: MALME-3M melanoma
TK-10 renal = test system: TK-10 renal
CCRF-CEM leukemia = test system: CCRF-CEM leukemia
DU-145 prostate = test system: DU-145 prostate
SF-295 CNS = test system: SF-295 CNS
LOX IMVI melanoma = test system: LOX IMVI melanoma
MDA-MB-468 breast = test system: MDA-MB-468 breast
NCI-H226 lung = test system: NCI-H226 lung
OVCAR-5 ovarian = test system: OVCAR-5 ovarian
SNB-75 CNS = test system: SNB-75 CNS
MDA-MB-435 melanoma = test system: MDA-MB-435 melanoma
SK-MEL-5 melanoma = test system: SK-MEL-5 melanoma
OVCAR-8 ovarian = test system: OVCAR-8 ovarian
HOP-62 NSCLC = test system: HOP-62 NSCLC
M14 melanoma = test system: M14 melanoma
A498 renal = test system: A498 renal
NCI-H23 lung = test system: NCI-H23 lung
RPMI-8226 leukemia = test system: RPMI-8226 leukemia
OVCAR-3 ovarian = test system: OVCAR-3 ovarian
MDA-MB-231 breast = test system: MDA-MB-231 breast
SK-MEL-28 melanoma = test system: SK-MEL-28 melanoma
BT-549 breast = test system: BT-549 breast
UO-31 renal = test system: UO-31 renal
HS 578T breast = test system: HS 578T breast
NCI-H322M lung = test system: NCI-H322M lung
SNB-19 CNS = test system: SNB-19 CNS
NCI/ADR-RES ovarian = test system: NCI/ADR-RES ovarian
SF-268 CNS = test system: SF-268 CNS
T-47D breast = test system: T-47D breast
NCI-H460 NSCLC = test system: NCI-H460 NSCLC
ACHN renal = test system: ACHN renal
IGROV1 ovarian = test system: IGROV1 ovarian
SW-620 colon = test system: SW-620 colon
RXF 393 renal = test system: RXF 393 renal
OVCAR-4 ovarian = test system: OVCAR-4 ovarian
HT29 colon = test system: HT29 colon
UACC-257 melanoma = test system: UACC-257 melanoma
KM12 colon = test system: KM12 colon
SF-539 CNS = test system: SF-539 CNS
CAKI-1 renal = test system: CAKI-1 renal
SK-OV-3 ovarian = test system: SK-OV-3 ovarian

## Cc1cc(Nc2cc(CN3CCOCC3)c3nc(C)c(Cc4ccc(Cl)cc4F)n3n2)n[nH]1
U251 glioblastoma
  GI50: 1.2 µM
  TGI: 2.75 µM
UACC-62 melanoma
  GI50: 1.23 µM
  TGI: 2.99 µM
PC-3 prostate
  GI50: 2.2 µM
  TGI: 13.7 µM
HOP-92 NSCLC
  GI50: 0.554 µM
  TGI: 2.56 µM
SN12C renal
  GI50: 0.73 µM
  TGI: 9.25 µM
786-0 renal
  GI50: 0.688 µM
  TGI: 2.32 µM
K-562 leukemia
  GI50: 0.38 µM
  TGI: 1.36 µM
SR leukemia
  GI50: 0.166 µM
  TGI: 0.312 µM
COLO 205 colon
  GI50: 0.418 µM
  TGI: 1.66 µM
EKVX NSCLC
  GI50: 1.58 µM
  TGI: 8.09 µM
NCI-H522 lung
  GI50: 0.366 µM
  TGI: 1.11 µM
MOLT-4 leukemia
  GI50: 0.162 µM
  TGI: 0.336 µM
HL-60(TB) leukemia
  GI50: 0.302 µM
  TGI: 0.67 µM
HCC-2998 colon
  GI50: 1.13 µM
  TGI: 2.39 µM
HCT-15 colon
  GI50: 1.11 µM
  TGI: 12 µM
MCF7 breast
  GI50: 0.894 µM
  TGI: 6.57 µM
A549 NSCLC
  GI50: 0.772 µM
  TGI: 3.35 µM
MALME-3M melanoma
  GI50: 1.49 µM
  TGI: 9.79 µM
TK-10 renal
  GI50: 1.95 µM
  TGI: 4.72 µM
CCRF-CEM leukemia
  GI50: 0.276 µM
  TGI: 0.604 µM
DU-145 prostate
  GI50: 1.02 µM
  TGI: 3 µM
SF-295 CNS
  GI50: 1.21 µM
  TGI: 2.7 µM
LOX IMVI melanoma
  GI50: 0.868 µM
  TGI: 2.13 µM
MDA-MB-468 breast
  GI50: 0.271 µM
  TGI: 0.535 µM
NCI-H226 lung
  GI50: 0.324 µM
  TGI: 2.08 µM
OVCAR-5 ovarian
  GI50: 1.06 µM
  TGI: 3.58 µM
SNB-75 CNS
  GI50: 0.812 µM
  TGI: 2.35 µM
MDA-MB-435 melanoma
  GI50: 0.563 µM
  TGI: 15.1 µM
SK-MEL-5 melanoma
  GI50: 0.693 µM
  TGI: 5.82 µM
OVCAR-8 ovarian
  GI50: 1.37 µM
  TGI: 3.65 µM
HOP-62 NSCLC
  GI50: 1.05 µM
  TGI: 2.95 µM
M14 melanoma
  GI50: 1.74 µM
  TGI: 11.8 µM
A498 renal
  GI50: 0.724 µM
  TGI: 3.29 µM
NCI-H23 lung
  GI50: 0.578 µM
  TGI: 2.57 µM
RPMI-8226 leukemia
  GI50: 0.205 µM
  TGI: 0.516 µM
OVCAR-3 ovarian
  GI50: 0.825 µM
  TGI: 2.96 µM
MDA-MB-231 breast
  GI50: 1.07 µM
  TGI: 3.02 µM
SK-MEL-28 melanoma
  GI50: 2.39 µM
  TGI: 15 µM
BT-549 breast
  GI50: 0.842 µM
  TGI: 2.78 µM
UO-31 renal
  GI50: 1.44 µM
  TGI: 2.88 µM
HS 578T breast
  GI50: 0.586 µM
  TGI: 1.81 µM
NCI-H322M lung
  GI50: 1.71 µM
  TGI: 4.68 µM
SNB-19 CNS
  GI50: 1.85 µM
  TGI: 4.25 µM
NCI/ADR-RES ovarian
  GI50: 2.52 µM
  TGI: 7.88 µM
SF-268 CNS
  GI50: 0.439 µM
  TGI: 1.62 µM
T-47D breast
  GI50: 0.855 µM
  TGI: 14 µM
NCI-H460 NSCLC
  GI50: 0.356 µM
  TGI: 1.03 µM
ACHN renal
  GI50: 1.27 µM
  TGI: 7.95 µM
IGROV1 ovarian
  GI50: 1.69 µM
  TGI: 3.36 µM
SW-620 colon
  GI50: 0.671 µM
  TGI: 8.26 µM
RXF 393 renal
  GI50: 0.612 µM
  TGI: 2.36 µM
OVCAR-4 ovarian
  GI50: 0.874 µM
  TGI: 5.88 µM
HT29 colon
  GI50: 1.73 µM
  TGI: 16.1 µM
UACC-257 melanoma
  GI50: 5.45 µM
  TGI: 20.6 µM
KM12 colon
  GI50: 0.0378 µM
  TGI: 1.47 µM
SF-539 CNS
  GI50: 1.08 µM
  TGI: 2.45 µM
CAKI-1 renal
  GI50: 1.03 µM
  TGI: 2.24 µM
SK-OV-3 ovarian
  GI50: 1.23 µM
  TGI: 3.38 µM
